Measurements as given in US20220117917A1, “PH-ACTIVATED NANOPARTICLES” (Ohio State Innovation Foundation, priority 2018, published 2022).

Tests used:
MDA-MB453 cells = test: Cell viability; assay type: cell-based, human; details: 72 h; mutant p53
Experimental: (§1) Cell viability assay. Equal numbers of cells were plated in 12 well plates in triplicate. After incubation with indicated reagents for 72 hours, cell viability was quantified using Vi-Cell cell viability analyzer (Beckman Coulter).

Wip1 = target: T1, Wip1 (Homo sapiens, UniProt O15297); details: cited from earlier work
T1 sequence (O15297 1-605): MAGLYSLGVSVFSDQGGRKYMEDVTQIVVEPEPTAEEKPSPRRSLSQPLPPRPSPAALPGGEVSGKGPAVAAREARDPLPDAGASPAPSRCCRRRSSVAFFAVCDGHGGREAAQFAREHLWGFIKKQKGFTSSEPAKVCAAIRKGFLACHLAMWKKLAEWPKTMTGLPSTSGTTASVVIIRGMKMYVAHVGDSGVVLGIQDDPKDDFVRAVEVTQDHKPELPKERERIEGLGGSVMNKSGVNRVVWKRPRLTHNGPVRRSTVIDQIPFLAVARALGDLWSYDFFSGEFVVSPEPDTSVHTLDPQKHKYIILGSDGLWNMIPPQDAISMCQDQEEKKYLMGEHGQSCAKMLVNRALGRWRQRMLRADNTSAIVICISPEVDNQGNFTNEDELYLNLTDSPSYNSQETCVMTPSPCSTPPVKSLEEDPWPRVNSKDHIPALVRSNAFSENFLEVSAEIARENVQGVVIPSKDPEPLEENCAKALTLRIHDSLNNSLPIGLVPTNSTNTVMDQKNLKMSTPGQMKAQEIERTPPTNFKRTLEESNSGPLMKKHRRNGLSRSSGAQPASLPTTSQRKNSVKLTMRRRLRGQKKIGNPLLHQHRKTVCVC

[1] = cited from earlier work
HER18R cells = test: Cell viability and Western blot, trastuzumab-resistant cells; assay type: cell-based, human; details: along with trastuzumab 1 μg/ml, 72 h
[2] = cited from earlier work; remark: listed apart in the source
HER18 cells = test: Cell viability and Western blot; assay type: cell-based, human
Experimental: (§2) Immunoblotting. Immunoblotting was performed as described previously (Liu Y, et al. Nature 2015 520:697-701). Briefly, total cell lysates were solubilized in lysis buffer (50 mM Tris, pH 7.5, 150 mM NaCl, 1 mM EDTA, 0.5% NP-40, 0.5% Triton X-100, 1 mM phenylmethylsulfonyl fluoride, 1 mM sodium fluoride, 5 mM sodium vanadate, 1 μg each of aprotinin, leupeptin, and pepstatin per ml). Proteins were resolved by SDS-PAGE gels and then proteins were transferred to PVDF membranes (Bio-Rad). The membranes were blocked with 5% nonfat milk for 1 h at room temperature prior to incubation with indicated primary antibodies. Subsequently membranes were washed and incubated for 1 h at room temperature with peroxidase-conjugated secondary antibodies (Santa Cruz Biotechnology). Following several washes, chemiluminescent images of immunodetected bands on the membranes were recorded on X-ray films using the enhanced chemiluminescence (ECL) system (Perkinelmer) according to the manufacturer's instructions.
as §1

BT474 cells = test: Cell viability and Western blot; assay type: cell-based, human
Experimental: as §2, §1

[3] = parameters: species or system mice; details: mouse, in vivo
Experimental: The tumor targeting capability of the nanoparticles was next investigated in mice. Indocyanine green (ICG) was encapsulated in the nanoparticles for in vivo imaging. […] To confirm the observation from whole animal imaging, various organs were harvested for ex vivo imaging to check the biodistribution of ICG after sacrificing the mice at 24 h. […] The antitumor efficacy and safety of the WIP1 and/or miR-21 inhibitor-laden nanoparticles were also investigated in vivo by treating orthotopic HER18R mammary tumor-bearing mice. The tumors were established by injecting 2,000,000 HER18R cells per animal into the fat pad of 6-8 week-old female nude mice. The tumor-bearing mice were divided randomly into four groups: blank nanoparticles, WIP1 inhibitor-laden nanoparticles, miR-21 inhibitor-laden nanoparticles, and WIP1+miR-21 inhibitors-laden nanoparticles. Mice were treated with 1.0 mg/kg body weight of miR-21 inhibitor and/or 5.0 mg/kg of WIP1 inhibitor encapsulated in the nanoparticles via intravenous injection when the tumor reached a volume of ˜150 mm^3 at 21 days after implantation. […] Moreover, side effect of the drug-laden or blank nanoparticles was negligible.

[4] = Electrophoretic stability assay of anti-miR21 oligonucleotide; assay type: in vitro ADME; details: 37° C.
Experimental: Electrophoretic gel assay. Free anti-miR21 oligonucleotide and in-MW@NP (in PBS or serum) were mixed with loading buffer, and then loaded into 2% wt agarose gel with […] ethidium bromide. Electrophoresis was conducted in 1×TEA buffer at 80 V for 10 min. The result gels were analyzed using a UV illuminator (FluorChem™ E System, CA, USA) to show its location of anti-miR21 oligonucleotide.

## Cc1ncc(Cl)cc1NCc1ccc(C(=O)N[C@@H](CC2CCCC2)C(=O)NC2CC2)s1 [GSK2830371]
MDA-MB453 cells
  sensitivity (cell viability): notably insensitive
Wip1
  selectivity for Wip1 over other phosphatases: selectivity for Wip1 over 21 other phosphatases
[1]
  bioavailability in vivo: poor bioavailability in vivo
HER18R cells
  sensitization to trastuzumab: sensitized
[2]
  solubility in water: poor solubility in water
HER18 cells; 72 h, wildtype p53
  sensitivity (cell viability): very sensitive
HER18 cells; immunoblotting
  phosphorylated CHK2 and p21 levels: significantly increased the levels of phosphorylated CHK2 and the p53-induced p21
BT474 cells; 72 h, mutant p53
  sensitivity (cell viability): notably insensitive

## CC1(C)C(/C=C/C=C/C=C/C=C2\N(CCCCS(=O)(=O)O)c3ccc4ccccc4c3C2(C)C)=[N+](CCCCS(=O)(=O)[O-])c2ccc3ccccc3c21 [free ICG, Indocyanine green]
[3]
  ICG fluorescence in liver: weak fluorescence
  ICG signal / localization: no notable signal

## anti-miR-21: anti-miR-21 oligonucleotide; in some embodiments UCAACAUCAGUCUGAUAAGCUAG (SEQ ID NO: 5) (further chemistry not given here)
[4]
  onset of degradation: started to degrade in a few minutes
[4]; up to 36 h
  time oligonucleotide observable: less than 2 h
[1]; in vivo
  stability in blood: relatively unstable in blood
HER18R cells
  sensitization to trastuzumab: sensitized
BT474 cells; HER2+/p53-mutant cells with 17q23 amplification
  cell proliferation and viability: significantly reduced the cell proliferation and viability
